From PubChem BioAssay AID1963846 (Molecular Pharmacology Branch, DTP, NCI, 2024)

Tested on: 454973-116-R2-J3-PDC complex spheroid viability
Experiment: Anticancer human tumor 454973-116-R2-J3-PDC patient-derived pancreatic carcinoma cell line growth inhibition [POLQ]
Details: for IC50: curve of first compound; for viability, T/C: stronger effect = lower value
Procedure, shortened: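 PDC + HUVEC + MSC complex spheroids; POLQ inhibitors ± partner drugs; top conc. at/near clinical Cmax, else 10 microM (SN-38 1 microM), half-log dilutions; 37 degrees C, 5% CO2.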

[1] = second compound 0.0316 µM, first compound 0.00316 µM
[2] = second compound 0.0316 µM, first compound 0.01 µM
[3] = second compound 0.0316 µM, first compound 0.0316 µM
[4] = second compound 0.0316 µM, first compound 0.1 µM
[5] = second compound 0.1 µM, first compound 0.00316 µM
[6] = second compound 0.1 µM, first compound 0.01 µM
[7] = second compound 0.1 µM, first compound 0.0316 µM
[8] = second compound 0.1 µM, first compound 0.1 µM
[9] = second compound 0.316 µM, first compound 0.00316 µM
[10] = second compound 0.316 µM, first compound 0.01 µM
[11] = second compound 0.316 µM, first compound 0.0316 µM
[12] = second compound 0.316 µM, first compound 0.1 µM
[13] = second compound 1 µM, first compound 0.00316 µM
[14] = second compound 1 µM, first compound 0.01 µM
[15] = second compound 1 µM, first compound 0.0316 µM
[16] = second compound 1 µM, first compound 0.1 µM
[17] = second compound 3.16 µM, first compound 0.00316 µM
[18] = second compound 3.16 µM, first compound 0.01 µM
[19] = second compound 3.16 µM, first compound 0.0316 µM
[20] = second compound 3.16 µM, first compound 0.1 µM
[21] = second compound 10 µM, first compound 0.00316 µM
[22] = second compound 10 µM, first compound 0.01 µM
[23] = second compound 10 µM, first compound 0.0316 µM
[24] = second compound 10 µM, first compound 0.1 µM
[25] = second compound 0.0316 µM, first compound 0.316 µM
[26] = second compound 0.0316 µM, first compound 1 µM
[27] = second compound 0.1 µM, first compound 0.316 µM
[28] = second compound 0.1 µM, first compound 1 µM
[29] = second compound 0.316 µM, first compound 0.316 µM
[30] = second compound 0.316 µM, first compound 1 µM
[31] = second compound 1 µM, first compound 0.316 µM
[32] = second compound 1 µM, first compound 1 µM
[33] = second compound 3.16 µM, first compound 0.316 µM
[34] = second compound 3.16 µM, first compound 1 µM
[35] = second compound 10 µM, first compound 0.316 µM
[36] = second compound 10 µM, first compound 1 µM
[37] = second compound 0.0316 µM, first compound 3.16 µM
[38] = second compound 0.0316 µM, first compound 10 µM
[39] = second compound 0.1 µM, first compound 3.16 µM
[40] = second compound 0.1 µM, first compound 10 µM
[41] = second compound 0.316 µM, first compound 3.16 µM
[42] = second compound 0.316 µM, first compound 10 µM
[43] = second compound 1 µM, first compound 3.16 µM
[44] = second compound 1 µM, first compound 10 µM
[45] = second compound 3.16 µM, first compound 3.16 µM
[46] = second compound 3.16 µM, first compound 10 µM
[47] = second compound 10 µM, first compound 3.16 µM
[48] = second compound 10 µM, first compound 10 µM
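Note: spheroids exposed to drugs for seven days before measurement.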
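Throughout, for viability, T/C: percent viability relative to DMSO vehicle control wells taken as 100%.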

For CC[C@@]1(O)C(=O)OCc2c1cc1n(c2=O)Cc2cc3c(CN(C)C)c(O)ccc3nc2-1 + Cc1cccc(N(C)C(=O)C2C(O)CCN2c2nc(C)cc(C(F)(F)F)c2C#N)c1, the IC50 (second compound 0.0316 µM) was 18.7 nM, the IC50 (second compound 0.1 µM) was 19.2 nM and the IC50 (second compound 0.316 µM) was 18.1 nM. The IC50 (second compound 1 µM) was 18.6 nM, the IC50 (second compound 3.16 µM) was 16.8 nM and the IC50 (second compound 10 µM) was 19.1 nM. For the same compound, the viability, T/C (second compound 0.0316 µM, first compound 0.000316 µM) was 92.2%, the viability, T/C (second compound 0.0316 µM, first compound 0.001 µM) was 102% and the viability, T/C [1] was 90.5%. For the same compound, the viability, T/C [2] was 85.3%, the viability, T/C [3] was 20.4% and the viability, T/C [4] was 16.1%. It also gave a viability, T/C (second compound 0.1 µM, first compound 0.000316 µM) of 104%, a viability, T/C (second compound 0.1 µM, first compound 0.001 µM) of 104% and a viability, T/C [5] of 99.8%. It also gave a viability, T/C [6] of 88.6%, a viability, T/C [7] of 20.2% and a viability, T/C [8] of 19.7%. The viability, T/C (second compound 0.316 µM, first compound 0.000316 µM) was 98.3%, the viability, T/C (second compound 0.316 µM, first compound 0.001 µM) was 118% and the viability, T/C [9] was 113%. The viability, T/C [10] was 83.9%, the viability, T/C [11] was 18.4% and the viability, T/C [12] was 16.5%. It also gave a viability, T/C (second compound 1 µM, first compound 0.000316 µM) of 103%, a viability, T/C (second compound 1 µM, first compound 0.001 µM) of 106% and a viability, T/C [13] of 97.1%. The viability, T/C [14] was 84.9%, the viability, T/C [15] was 19.6% and the viability, T/C [16] was 19.8%. The viability, T/C (second compound 3.16 µM, first compound 0.000316 µM) was 116%, the viability, T/C (second compound 3.16 µM, first compound 0.001 µM) was 106% and the viability, T/C [17] was 105%. The viability, T/C [18] was 76%, the viability, T/C [19] was 16.8% and the viability, T/C [20] was 19.8%. The viability, T/C (second compound 10 µM, first compound 0.000316 µM) was 107%, the viability, T/C (second compound 10 µM, first compound 0.001 µM) was 96.6% and the viability, T/C [21] was 97.3%. For the same compound, the viability, T/C [22] was 85.6%, the viability, T/C [23] was 21.3% and the viability, T/C [24] was 22.6%.

In the case of CCc1c2c(nc3ccc(O)cc13)-c1cc3c(c(=O)n1C2)COC(=O)[C@]3(O)CC + Cc1cccc(N(C)C(=O)C2C(O)CCN2c2nc(C)cc(C(F)(F)F)c2C#N)c1, the IC50 (second compound 0.0316 µM) is reported as < 3.16 nM, the IC50 (second compound 0.1 µM) is reported as < 3.16 nM and the IC50 (second compound 0.316 µM) is reported as < 3.16 nM. For the same compound, the IC50 (second compound 1 µM) was < 3.16 nM, the IC50 (second compound 3.16 µM) was < 3.16 nM and the IC50 (second compound 10 µM) was < 3.16 nM. It also gave a viability, T/C [1] of 32.6%, a viability, T/C [2] of 17.2% and a viability, T/C [3] of 13.2%. The viability, T/C [4] was 6.84%, the viability, T/C [25] was 2.58% and the viability, T/C [26] was 1.69%. For the same compound, the viability, T/C [5] was 31.1%, the viability, T/C [6] was 19.1% and the viability, T/C [7] was 13.6%. For the same compound, the viability, T/C [8] was 5.52%, the viability, T/C [27] was 2.13% and the viability, T/C [28] was 1.7%. For the same compound, the viability, T/C [9] was 28.8%, the viability, T/C [10] was 17.2% and the viability, T/C [11] was 15%. For the same compound, the viability, T/C [12] was 5.17%, the viability, T/C [29] was 1.9% and the viability, T/C [30] was 1.61%. The viability, T/C [13] was 35.7%, the viability, T/C [14] was 18.7% and the viability, T/C [15] was 11.5%. It also gave a viability, T/C [16] of 5.4%, a viability, T/C [31] of 2.24% and a viability, T/C [32] of 1.72%. For the same compound, the viability, T/C [17] was 33.6%, the viability, T/C [18] was 21.9% and the viability, T/C [19] was 13.1%. For the same compound, the viability, T/C [20] was 5.13%, the viability, T/C [33] was 2.23% and the viability, T/C [34] was 1.68%. The viability, T/C [21] was 26.3%, the viability, T/C [22] was 21.5% and the viability, T/C [23] was 12.8%. The viability, T/C [24] was 4.56%, the viability, T/C [35] was 1.72% and the viability, T/C [36] was 4.16%.

In the case of Nc1ccn(C2OC(CO)C(O)C2(F)F)c(=O)n1 (stereo not drawn) + Cc1cccc(N(C)C(=O)C2C(O)CCN2c2nc(C)cc(C(F)(F)F)c2C#N)c1, the IC50 (second compound 0.0316 µM) is reported as < 31.6 nM, the IC50 (second compound 0.1 µM) is reported as < 31.6 nM and the IC50 (second compound 0.316 µM) is reported as < 31.6 nM. The IC50 (second compound 1 µM) was < 31.6 nM, the IC50 (second compound 3.16 µM) was < 31.6 nM and the IC50 (second compound 10 µM) was < 31.6 nM. For the same compound, the viability, T/C [3] was 13.4%, the viability, T/C [4] was 13.4% and the viability, T/C [25] was 14.2%. For the same compound, the viability, T/C [26] was 12.5%, the viability, T/C [37] was 12.3% and the viability, T/C [38] was 12.7%. For the same compound, the viability, T/C [7] was 16.2%, the viability, T/C [8] was 11.9% and the viability, T/C [27] was 13.7%. The viability, T/C [28] was 15.5%, the viability, T/C [39] was 13.5% and the viability, T/C [40] was 13.9%. It also gave a viability, T/C [11] of 15.1%, a viability, T/C [12] of 13.8% and a viability, T/C [29] of 14.2%. For the same compound, the viability, T/C [30] was 14.2%, the viability, T/C [41] was 13.6% and the viability, T/C [42] was 12.8%. The viability, T/C [15] was 14.1%, the viability, T/C [16] was 11.7% and the viability, T/C [31] was 13.9%. The viability, T/C [32] was 14.6%, the viability, T/C [43] was 12.5% and the viability, T/C [44] was 11.8%. For the same compound, the viability, T/C [19] was 16.9%, the viability, T/C [20] was 13.5% and the viability, T/C [33] was 14.8%. It also gave a viability, T/C [34] of 13.8%, a viability, T/C [45] of 12.5% and a viability, T/C [46] of 14%. For the same compound, the viability, T/C [23] was 13.6%, the viability, T/C [24] was 14.2% and the viability, T/C [35] was 17.1%. It also gave a viability, T/C [36] of 14.2%, a viability, T/C [47] of 13.8% and a viability, T/C [48] of 11.9%.

O=c1[nH]cc(F)c(=O)[nH]1 + Cc1cccc(N(C)C(=O)C2C(O)CCN2c2nc(C)cc(C(F)(F)F)c2C#N)c1 gave an IC50 (second compound 0.0316 µM) of 2930 nM, an IC50 (second compound 0.1 µM) of 2680 nM and an IC50 (second compound 0.316 µM) of 2560 nM. The IC50 (second compound 1 µM) was 2570 nM, the IC50 (second compound 3.16 µM) was 2530 nM and the IC50 (second compound 10 µM) was 2540 nM. For the same compound, the viability, T/C [3] was 99.3%, the viability, T/C [4] was 104% and the viability, T/C [25] was 98.1%. It also gave a viability, T/C [26] of 104%, a viability, T/C [37] of 46.3% and a viability, T/C [38] of 30.7%. The viability, T/C [7] was 109%, the viability, T/C [8] was 108% and the viability, T/C [27] was 111%. For the same compound, the viability, T/C [28] was 102%, the viability, T/C [39] was 41.1% and the viability, T/C [40] was 33.1%. The viability, T/C [11] was 107%, the viability, T/C [12] was 115% and the viability, T/C [29] was 123%. It also gave a viability, T/C [30] of 96.9%, a viability, T/C [41] of 40.1% and a viability, T/C [42] of 37%. For the same compound, the viability, T/C [15] was 119%, the viability, T/C [16] was 112% and the viability, T/C [31] was 112%. It also gave a viability, T/C [32] of 95%, a viability, T/C [43] of 40% and a viability, T/C [44] of 31.6%. The viability, T/C [19] was 116%, the viability, T/C [20] was 118% and the viability, T/C [33] was 108%. The viability, T/C [34] was 93.4%, the viability, T/C [45] was 38.9% and the viability, T/C [46] was 32%. For the same compound, the viability, T/C [23] was 116%, the viability, T/C [24] was 108% and the viability, T/C [35] was 104%. It also gave a viability, T/C [36] of 92.2%, a viability, T/C [47] of 39.6% and a viability, T/C [48] of 30.9%.
